Earlier results on 1 compound are cited in patent publication US20100310668A1, “PHARMACEUTICAL COMPOSITIONS COMPRISING N-[2-(DIETHYLAMINO)ETHYL]-5-[(5-FLUORO-1,2-DIHYDRO-2-OXO-3H-INDOL-3-YLIDENE)METHYL]-2,4-DIMETHYL-1H-PYRROLE-3-CARBOXAMIDE” (ratiopharm GmbH, priority 2008, published 2010).

The conditions of the data set: solid (crystalline) form obtained by known manufacturing processes.

On to `CCN(CC)CCNC(=O)c1c(C)[nH]c(/C=C2\C(=O)Nc3ccc(F)cc32)c1C` [compound I, N-[2-(diethylamino)ethyl]-5-[(5-fluoro-1,2-dihydro-2-oxo-3H-indol-3-ylidene)methyl]-2,4-dimethyl-1H-pyrrole-3-carboxamide], for which the solubility in water result is “poor”.
